Test [1] concerns the target T1, Inhibitor of nuclear factor kappa-B kinase subunit beta (Homo sapiens) (UniProt O14920).
T1 sequence (whole entry): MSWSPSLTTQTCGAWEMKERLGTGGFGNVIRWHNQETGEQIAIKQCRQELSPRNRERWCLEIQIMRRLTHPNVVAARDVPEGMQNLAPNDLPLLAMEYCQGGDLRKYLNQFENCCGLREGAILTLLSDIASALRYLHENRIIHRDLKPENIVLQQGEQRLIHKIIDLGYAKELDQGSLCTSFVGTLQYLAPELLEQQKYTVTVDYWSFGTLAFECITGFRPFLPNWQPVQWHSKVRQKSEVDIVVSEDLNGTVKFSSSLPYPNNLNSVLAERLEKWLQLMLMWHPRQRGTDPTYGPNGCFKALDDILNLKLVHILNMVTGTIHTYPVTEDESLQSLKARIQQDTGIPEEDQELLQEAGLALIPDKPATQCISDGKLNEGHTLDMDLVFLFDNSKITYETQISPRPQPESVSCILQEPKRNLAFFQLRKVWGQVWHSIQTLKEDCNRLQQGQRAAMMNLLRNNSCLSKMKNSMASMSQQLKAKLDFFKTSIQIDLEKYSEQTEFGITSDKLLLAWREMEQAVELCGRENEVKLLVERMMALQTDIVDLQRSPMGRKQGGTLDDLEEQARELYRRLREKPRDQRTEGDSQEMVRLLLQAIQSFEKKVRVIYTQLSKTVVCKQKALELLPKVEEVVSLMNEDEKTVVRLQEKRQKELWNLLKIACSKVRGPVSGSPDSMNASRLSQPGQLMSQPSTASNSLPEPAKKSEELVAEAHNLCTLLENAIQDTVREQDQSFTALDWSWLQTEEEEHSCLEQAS
The following applies: at 1 µM.

In test [2] the target is T2, Serine/threonine-protein kinase TBK1 (Homo sapiens) (UniProt Q9UHD2).
T2 sequence (whole entry): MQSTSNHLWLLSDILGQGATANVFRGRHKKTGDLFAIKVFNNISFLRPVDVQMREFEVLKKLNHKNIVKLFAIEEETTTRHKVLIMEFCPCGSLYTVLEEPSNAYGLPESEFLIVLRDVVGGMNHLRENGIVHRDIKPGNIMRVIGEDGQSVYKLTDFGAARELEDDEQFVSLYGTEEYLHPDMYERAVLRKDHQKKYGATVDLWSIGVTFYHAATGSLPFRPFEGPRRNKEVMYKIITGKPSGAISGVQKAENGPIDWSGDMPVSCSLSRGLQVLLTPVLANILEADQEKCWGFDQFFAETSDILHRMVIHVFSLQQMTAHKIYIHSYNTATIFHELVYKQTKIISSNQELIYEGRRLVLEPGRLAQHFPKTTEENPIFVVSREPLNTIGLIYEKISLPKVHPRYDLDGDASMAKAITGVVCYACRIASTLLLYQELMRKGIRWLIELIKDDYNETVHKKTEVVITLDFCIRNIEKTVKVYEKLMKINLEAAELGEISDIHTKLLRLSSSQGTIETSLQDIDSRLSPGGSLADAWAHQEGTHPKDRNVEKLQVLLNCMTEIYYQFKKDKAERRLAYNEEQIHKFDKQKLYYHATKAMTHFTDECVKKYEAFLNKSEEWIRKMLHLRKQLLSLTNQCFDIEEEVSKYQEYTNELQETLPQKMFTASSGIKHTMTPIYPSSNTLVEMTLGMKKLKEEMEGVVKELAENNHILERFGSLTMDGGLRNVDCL
Conditions: at 1 µM.

In ChEMBL document CHEMBL2007661, “Compounds: GSK PKIS; Assays: UNC Frye lab” (2012) one finds inhibition data, which are given here for 30 compounds.

Several values for one entry are separate records, joined by “and”; a condition that tells them apart may be missing. Equal values may be shown once.

As a reminder, the inhibition is the relative decrease from the control value, in per cent. For `CN(C)CCCNc1nccc(-c2c(-c3ccc(F)cc3)nn3cc(C(F)(F)F)ccc23)n1`, the inhibition in test [1] is 2% and 0%; in test [2], -1% and 2%.

Regarding `Nc1nonc1-c1nc2cnccc2n1C1CC1`, the inhibition in test [1] is -3% and 2%; in test [2], 8%.

On to `Nc1nc(-c2ccccn2)c(-c2ccc3ncccc3n2)s1`, for which the inhibition is -4% and -7% in test [1]; 3% and 0% in test [2].

In the case of `Cc1ccc2c(-c3ccnc(Nc4ccccc4)n3)c(-c3ccc(F)cc3)nn2n1`, the inhibition was -1% and -4% in test [1]; -1% and -3% in test [2].

With `CCc1ccc(Oc2nccc(-c3c(-c4ccc(F)cc4)ncn3C3CCNCC3)n2)cc1`, the inhibition in test [1] is -7% and -6%; in test [2], -6% and -3%.

Take `CCCN1CCC(c2ccc(Nc3nc(Nc4cc(F)ccc4C(N)=O)c4cc[nH]c4n3)c(OC)c2)CC1`: the inhibition in test [1] is -2% and 4%; in test [2] it was 13% and 7%.

On to `Cc1cccc(-c2n[nH]cc2-c2ccc3ncccc3n2)n1`, for which the inhibition is -4% and -1% in test [1]; -10% and -6% in test [2].

`CS(=O)(=O)CCNCc1ccc(-c2ccc3ncnc(Nc4ccc(OCc5ccccc5)c(C(F)(F)F)c4)c3c2)o1`: the inhibition in test [1] is -5% and -3%; in test [2], -3% and -1%.

On to `COc1ccc2[nH]c3c4[nH]c5ccc(OC)cc5c4c4c(c3c2c1)C(=O)NC4=O`, for which the inhibition in test [1] is -1% and -5%; in test [2], 55% and 56%.

Consider `CS(=O)(=O)CCNCc1ccc(-c2ccc3ncnc(Nc4ccc(OCc5ccccc5)c(Cl)c4)c3c2)o1`, for which the inhibition was 1% in test [1]; -2% and 0% in test [2].

As to `Nc1nc(-c2ccc3c(c2)C(=Cc2cc(Br)c(O)c(Br)c2)C(=O)N3)cs1`, the inhibition was -8% in test [1]; 7% and 5% in test [2].

On to `NS(=O)(=O)c1ccc(Nc2ncc(-c3ccccc3)o2)cc1`, for which the inhibition in test [1] is -2% and 2%; in test [2] it was 10% and 5%.

Regarding `COc1cc(Nc2ncc(-c3ccccc3)o2)cc(OC)c1OC`, the inhibition is 15% and 0% in test [1]; 35% and 27% in test [2].

In the case of `COC(=O)c1ccc2c(c1)C(=Cc1cc(Br)c(O)c(Br)c1)C(=O)N2`, the inhibition was 0% and -2% in test [1]; 36% in test [2].

For `CC(C)(CO)CNC(=O)c1ccc2c(c1)/C(=N/Nc1ccc(S(N)(=O)=O)cc1)C(=O)N2`, the inhibition in test [1] was -2%; in test [2], 87% and 88%.

For `Fc1cccc(COc2ccc(Nc3ncncc3C#Cc3ccccc3)cc2Cl)c1`, the inhibition in test [1] was -6% and -3%; in test [2] it was -6% and -7%.

As to `COc1cccc(-n2ncc3c(N/N=C/c4cccc(F)c4)ncnc32)c1`, the inhibition in test [1] is -7% and -5%; in test [2], 6% and 5%.

Regarding `COc1cc2ncn(-c3cc(OCc4ccccc4C(F)(F)F)c(C(=O)N(C)C)s3)c2cc1OC`, the inhibition was -3% and -1% in test [1]; -1% and 0% in test [2].

`NC(=O)c1ccc(-c2nc(-c3ccccn3)c(-c3ccc4c(c3)OCO4)[nH]2)cc1`: the inhibition was 5% and 2% in test [1]; 0% and 5% in test [2].

As to `Cc1cc(O)cc(C)c1/C=C/c1cncc(C(=O)N(C)C)c1`, the inhibition in test [1] was 3% and 2%; in test [2] it was 1% and 6%.

In the case of `CC(C)COC(=O)c1ccc2c(c1)/C(=C/Nc1ccc(S(N)(=O)=O)cc1)C(=O)N2`, the inhibition in test [1] was 0% and -1%; in test [2], 93% and 98%.

In the case of `CCn1cc(-c2ccnc3[nH]ccc23)c(-c2cccc(NC(=O)Nc3ccc(OCc4ccccc4)cc3)c2)n1`, the inhibition in test [1] was -3% and 0%; in test [2], -4% and -1%.

In the case of `COc1cc2c(cc1Nc1nc(N3CCc4ccccc43)c3cc[nH]c3n1)N(C(=O)CN(C)C)CC2`, the inhibition in test [1] was -6%; in test [2] it was 24% and 28%.

Turning to `O=C1NC(=O)C(c2ccc(Cl)cc2)=C1Nc1ccc(Cl)c(C(=O)O)c1`, the inhibition in test [1] was -5% and -2%; in test [2], -2% and -4%.

`CCCN(CCS(C)(=O)=O)Cc1ccc(-c2ccc3ncnc(Nc4ccc(OCc5cccc(F)c5)c(Cl)c4)c3c2)o1`: the inhibition was -1% and -5% in test [1]; 7% and 10% in test [2].

On to `COc1cc(N2CCN(C(C)C)CC2)ccc1Nc1nc(Nc2cccc3ncccc23)c2cc[nH]c2n1`, for which the inhibition in test [1] was -2% and -4%; in test [2], 7% and 2%.

Consider `CCn1c(-c2nonc2N)nc2c(C#CC(C)(C)O)nc(OCCNC)cc21`, for which the inhibition was -2% in test [1]; 23% and 19% in test [2].

Consider `C[C@@H](Oc1cc(-n2cnc3ccc(OCC4CCN(C)CC4)cc32)sc1C(N)=O)c1ccccc1C(F)(F)F`, for which the inhibition in test [1] was -2% and 0%; in test [2] it was 11% and 4%.

Turning to `COc1cccc(-n2ncc3c(N/N=C/c4ccc(F)cc4)ncnc32)c1`, the inhibition in test [1] was 1% and -3%; in test [2] it was 5% and 11%.

For `COC(=O)Nc1nc2ccc(S(=O)(=O)c3ccc(NC(=O)Nc4cc(C(F)(F)F)ccc4F)cc3)cc2[nH]1`, the inhibition in test [1] was -6% and -5%; in test [2], 0%.
